Test: Test of reduction of Methyl red by food matrices (Example 3)
Design: key to Increase in fluorescence over 24 hours: The symbol “−” means that there is no growth or increase in fluorescence of the medium indicating a reduction of the substrate over 24 hours
Conditions: for Increase in fluorescence over 24 hours: 35 mg/l of Methyl red in TSB, 250 nm/395 nm, 35° C.
Protocol: Nine food matrices, some of which have high enzymatic activity (for which the use of Tempo®TVC is not recommended), listed in Table VIII, are tested, in a microtitration plate, in the presence of 35 mg/l of Methyl red in TSB medium to which is added an antimicrobial cocktail combining 200 mg/l of chloramphenicol and 6 mg/l of gentamycin to inhibit the growth of bacteria and fungi. The matrices are tested at different concentrations: 1/400, 1/4000 and […]. To do this, 10 g of matrices are weighed out and dispersed by stomaching in 90 ml of Tryptone-salt solution, which corresponds to a 1/10 dilution, from which the test dilutions are made. The reduction of the substrate and the growth of the microorganisms are monitored using an Infinite® M200 Tecan microplate reader at 35° C. over 24 hours. The reduction of the Methyl red is monitored by reading the fluorescence with the wavelength pair 250 nm/395 nm. The potential growth of microorganisms is monitored by reading the absorbance at 660 nm. The symbol “−” means that there is no growth or increase in fluorescence of the medium indicating a reduction of the substrate over 24 hours.

CN(C)c1ccc(/N=N/c2ccccc2C(=O)O)cc1 [Methyl red]
−: Increase in fluorescence over 24 hours (Avocado + ATB) | Increase in fluorescence over 24 hours (Brie de Meaux AOC cheese + ATB) | Increase in fluorescence over 24 hours (Fresh tagliatelle + ATB) | Increase in fluorescence over 24 hours (Melon + ATB) | Increase in fluorescence over 24 hours (Microfiltered whole milk + ATB) | Increase in fluorescence over 24 hours (Mussels + ATB) | Increase in fluorescence over 24 hours (Pink shrimps + ATB) | Increase in fluorescence over 24 hours (Raw calf liver + ATB) | Increase in fluorescence over 24 hours (Salami + ATB)
no reduction: reduction of the Methyl red by the food matrix (text on Table IX) (nine food matrices with antimicrobial cocktail, no growth of microorganisms)

From patent publication US20150125889A1, “IN VITRO DETECTION OF MICROORGANISMS WITH AZOREDUCTASE ACTIVITY” (BIOMÉRIEUX, priority 2012, published 2015)
